Consider eleven compounds from patent publication US4691014A, “Cephalosporin compounds” (Kaken Pharmaceutical Co., Ltd., priority 1984, dated 1987).

Holding throughout (format): cell-based
One experiment has as its system Proteus vulgaris GN-76. The experiment can be described thus: Minimum inhibitory concentration against Proteus vulgaris GN-76. To be noted: GN76.
Experiment [1] has as its system Staphylococcus aureus JC-1. The experiment in a line: Minimum inhibitory concentration against Staphylococcus aureus JC-1. As to conditions: JC1.
The subject of experiment [2] is Pseudomonus aeruginosa GN1036. The experiment in a line: Minimum inhibitory concentration against Pseudomonus aeruginosa GN1036. As to conditions: Pseudomonas aeruginosa.
The subject of a further experiment is Escherichia coli JC-2. The experiment can be described thus: Minimum inhibitory concentration against Escherichia coli JC-2. To be noted: JC2.
Experiment [3] concerns Pseudomonus aeruginsoa Y-1. The experiment in a line: Minimum inhibitory concentration against Pseudomonus aeruginsoa Y-1. To be noted: Pseudomonas aeruginosa, Y1.
Experiment [4] has as its system Klebsiella pneumoniae KC-1. The experiment in a line: Minimum inhibitory concentration against Klebsiella pneumoniae KC-1. As to conditions: KC1.

Each structure is given as a SMILES string. ≈ marks a conversion by molar mass, not a printed value.

The term MIC denotes the lowest concentration that inhibits growth of the organism. The low end stands for inhibition by little substance, the high end for a need for much substance. With `CO/N=C(\C(=O)N[C@@H]1C(=O)N2C(C(=O)O)=C(COC(C)=O)CS[C@H]12)c1csc(N)n1` [Cefotaxime, reference compound], the MIC was 0.05 µg/mL (≈ 0.11 µM) against Proteus vulgaris GN-76; 6.25 µg/mL (≈ 13.7 µM) in experiment [1]; 12.5 µg/mL (≈ 27.4 µM) in experiment [2]; 0.1 µg/mL (≈ 0.22 µM) with Escherichia coli JC-2; 12.5 µg/mL (≈ 27.4 µM) in experiment [3].
Turning to `CC(=O)OCC1=C(C(=O)O)N2C(=O)[C@@H](NC(=O)/C(=N\OCC(=O)c3ccc(OC(C)=O)c(OC(C)=O)c3)c3coc(N)n3)[C@H]2SC1` [Example 1, 7β-[2-(2-aminooxazol-4-yl)-2-Z-(3,4-diacetoxybenzoylmethoxyimino)acetamido]cephalosporanic acid], the MIC is 1.56 µg/mL (≈ 2.37 µM) against Proteus vulgaris GN-76; 3.12 µg/mL (≈ 4.73 µM) in experiment [1]; 0.78 µg/mL (≈ 1.18 µM) in experiment [2]; 0.2 µg/mL (≈ 0.303 µM) in experiment [4]; 0.78 µg/mL (≈ 1.18 µM) in the experiment with Escherichia coli JC-2; 0.1 µg/mL (≈ 0.152 µM) in experiment [3].
As for `CC(=O)Oc1ccc(C(=O)CO/N=C(\C(=O)N[C@@H]2C(=O)N3C(C(=O)O)=C(CSc4nnnn4C)CS[C@H]23)c2coc(N)n2)cc1OC(C)=O` [Example 2, 7β-[2-(2-aminooxazol-4-yl)-2-Z-(3,4-diacetoxybenzoylmethoxyimino)acetamido]-3-(1-methyl-1H-tetrazol-5-yl)thiomethyl-3-cephem-4-carboxylic acid], the MIC against Proteus vulgaris GN-76 is 1.56 µg/mL (≈ 2.18 µM); in experiment [1] it was 3.12 µg/mL (≈ 4.36 µM); in experiment [2], 0.2 µg/mL (≈ 0.279 µM); in experiment [4] it was 0.05 µg/mL (≈ 0.0699 µM); against Escherichia coli JC-2, 0.2 µg/mL (≈ 0.279 µM); in experiment [3], 0.05 µg/mL (≈ 0.0699 µM).
With `CC(=O)Oc1ccc(C(=O)CO/N=C(\C(=O)N[C@@H]2C(=O)N3C(C(=O)O)=C(CSc4nnnn4CC(=O)O)CS[C@H]23)c2coc(N)n2)cc1OC(C)=O` [Example 3, 7β-[2-(2-aminooxazol-4-yl)-2-Z-(3,4-diacetoxybenzoylmethoxyimino)]acetamido-3-(1-carboxymethyl-1H-tetrazol-5-yl)thiomethyl-3-cephem-4-carboxylicacid], the MIC against Proteus vulgaris GN-76 was 1.56 µg/mL (≈ 2.05 µM); in experiment [1] it was 12.5 µg/mL (≈ 16.5 µM); in experiment [2], 0.2 µg/mL (≈ 0.263 µM); in experiment [4], 0.05 µg/mL (≈ 0.0658 µM); in the experiment on Escherichia coli JC-2 it was 0.2 µg/mL (≈ 0.263 µM); in experiment [3], < 0.05 µg/mL.
For the compound `CC(=O)OCC1=C(C(=O)O)N2C(=O)[C@@H](NC(=O)/C(=N\OC(=O)c3ccc(OC(C)=O)c(OC(C)=O)c3)c3coc(N)n3)[C@H]2SC1` [Example 4, 7β-[2-(2-aminooxazol-4-yl)-2-Z-(3,4-diacetoxybenzoyloxyimino)acetamido]cephalosporanic acid], the MIC in the experiment with Proteus vulgaris GN-76 came out at 0.39 µg/mL (≈ 0.604 µM); in experiment [1], 1.56 µg/mL (≈ 2.42 µM); in experiment [2], 0.78 µg/mL (≈ 1.21 µM); in experiment [4], 0.2 µg/mL (≈ 0.31 µM); against Escherichia coli JC-2 it was 0.2 µg/mL (≈ 0.31 µM); in experiment [3], 0.1 µg/mL (≈ 0.155 µM).
Take `CC(=O)Oc1ccc(C(=O)O/N=C(\C(=O)N[C@@H]2C(=O)N3C(C(=O)O)=C(CSc4nnnn4C)CS[C@H]23)c2coc(N)n2)cc1OC(C)=O` [Example 5, 7β-[2-(2-aminooxazol-4-yl)-2-Z-(3,4-diacetoxybenzoyloxyimino)acetamido]-3-(1-methyl-1H-tetrazol-5-yl)thiomethyl-3-cephem-4-carboxylic acid]: the MIC amounted to 0.39 µg/mL (≈ 0.556 µM) with Proteus vulgaris GN-76; 1.56 µg/mL (≈ 2.22 µM) in experiment [1]; 0.39 µg/mL (≈ 0.556 µM) in experiment [2]; 0.2 µg/mL (≈ 0.285 µM) in experiment [4]; 0.39 µg/mL (≈ 0.556 µM) in the experiment on Escherichia coli JC-2; 0.1 µg/mL (≈ 0.143 µM) in experiment [3].
`CC(=O)Oc1ccc(C(=O)O/N=C(\C(=O)N[C@@H]2C(=O)N3C(C(=O)O)=C(CSc4nnc(C)s4)CS[C@H]23)c2coc(N)n2)cc1OC(C)=O` [Example 6, 7β-[2-(2-aminooxazol-4-yl)-2-Z-(3,4-diacetoxybenzoyloxyimino)acetamido]-3-(2-methyl-1,3,4-thiadiazol-5-yl)thiomethyl-3-cephem-4-carboxylic acid]: the MIC against Proteus vulgaris GN-76 is 0.2 µg/mL (≈ 0.279 µM); in experiment [1] it was 3.12 µg/mL (≈ 4.35 µM); in experiment [2], 0.39 µg/mL (≈ 0.543 µM); in experiment [4] it was 0.05 µg/mL (≈ 0.0697 µM); against Escherichia coli JC-2 it was 0.2 µg/mL (≈ 0.279 µM); in experiment [3] it was 0.1 µg/mL (≈ 0.139 µM).
Take `CC(=O)Oc1ccc(C(=O)O/N=C(\C(=O)N[C@@H]2C(=O)N3C(C(=O)O)=C(CSc4nnnn4CC(=O)O)CS[C@H]23)c2coc(N)n2)cc1OC(C)=O` [Example 7, 7β-[2-(2-aminooxazol-4-yl)-2-Z-(3,4-diacetoxybenzoyloxyimino)acetamido]-3-(1-carboxymethyl-1H-tetrazol-5-yl)thiomethyl-3-cephem-4-carboxylic acid]: the MIC against Proteus vulgaris GN-76 is 0.1 µg/mL (≈ 0.134 µM); in experiment [1], 12.5 µg/mL (≈ 16.8 µM); in experiment [2], 0.05 µg/mL (≈ 0.0671 µM); in experiment [4] it was < 0.05 µg/mL; in the experiment with Escherichia coli JC-2, 0.05 µg/mL (≈ 0.0671 µM); in experiment [3], < 0.05 µg/mL.
With `CC(=O)Oc1cc(C(=O)O/N=C(\C(=O)N[C@@H]2C(=O)N3C(C(=O)O)=C(CSc4nnnn4C)CS[C@H]23)c2coc(N)n2)cc(OC(C)=O)c1OC(C)=O` [Example 8, 7β-[2-(2-aminooxazol-4-yl)-2-Z-(3,4,5-triacetoxybenzoyloxyimino)acetamido]-3-(1-methyl-1H-tetrazol-5-yl)thiomethyl-3-cephem-4-carboxylic acid], the MIC against Proteus vulgaris GN-76 amounted to 0.39 µg/mL (≈ 0.513 µM); in experiment [1] it was 1.56 µg/mL (≈ 2.05 µM); in experiment [2] it was 0.39 µg/mL (≈ 0.513 µM); in experiment [4], 0.1 µg/mL (≈ 0.132 µM); in the experiment on Escherichia coli JC-2, 0.1 µg/mL (≈ 0.132 µM); in experiment [3] it was 0.1 µg/mL (≈ 0.132 µM).
Regarding `CCOC(=O)Oc1ccc(C(=O)O/N=C(\C(=O)N[C@@H]2C(=O)N3C(C(=O)O)=C(CSc4nnnn4C)CS[C@H]23)c2coc(N)n2)cc1OC(=O)OCC` [Example 9, 7β-[2-(2-aminooxazol-4-yl)-2-Z-(3,4-diethoxycarbonyloxybenzoyloxyimino)acetamido]-3-(1-methyl-1H-tetrazol-5-yl)thiomethyl-3-cephem-4-carboxylic acid], the MIC in the experiment with Proteus vulgaris GN-76 came out at 0.2 µg/mL (≈ 0.263 µM); in experiment [1] it was 3.12 µg/mL (≈ 4.1 µM); in experiment [2], 0.2 µg/mL (≈ 0.263 µM); in experiment [4], 0.05 µg/mL (≈ 0.0656 µM); against Escherichia coli JC-2, 0.2 µg/mL (≈ 0.263 µM); in experiment [3] it was 0.05 µg/mL (≈ 0.0656 µM).
Turning to `CC(=O)Oc1cc(C(=O)O/N=C(\C(=O)N[C@@H]2C(=O)N3C(C(=O)O)=C(CSc4nnnn4CC(=O)O)CS[C@H]23)c2coc(N)n2)cc(OC(C)=O)c1OC(C)=O` [Example 10, 7β-[2-(2-aminooxazol-4-yl)-2-Z-(3,4,5-triacetoxybenzoyloxyimino)acetamido]-3-(1-carboxymethyl-1H-tetrazol-5-yl)thiomethyl-3-cephem-4-carboxylic acid], the MIC with Proteus vulgaris GN-76 was determined as 0.05 µg/mL (≈ 0.0622 µM); in experiment [1], 6.25 µg/mL (≈ 7.78 µM); in experiment [2], 0.39 µg/mL (≈ 0.485 µM); in experiment [4], 0.2 µg/mL (≈ 0.249 µM); with Escherichia coli JC-2, 0.05 µg/mL (≈ 0.0622 µM); in experiment [3] it was 0.1 µg/mL (≈ 0.124 µM).
